# Calls of active or inactive are those of the source. No cut-off for these calls is given here.
# Tests used:
# [1] = test system: HT-22; experiment: Neuroprotective activity against glutamate-induced oxidative stress in mouse HT22 cells assessed as ROS level at 5 uM pretreated for 12 hrs prior to glutamate-challenge measured after 12 hrs (reference value: 241.63 +/- 7.98%); format: functional
# [2] = molecular target: MAP kinase p38 (Mus musculus) (UniProt P47811+O08911+Q9WUI1+Q9Z1B7); experiment: Inhibition of glutamate-induced increase in p38 phosphorylation in mouse HT22 cells at 5 uM pretreated for 12 hrs followed by glutamate-challenge measured after 12 hrs by Western blotting assay (reference value: 2.46 +/- 0.96); format: cell-based; details: HT-22
# [3] = Neuroprotective activity against glutamate-induced cell death in mouse HT22 cells assessed as cell viability at 10 uM pretreated for 12 hrs prior to glutamate-challenge measured after 12 hrs by MTT assay (reference value: 43.35 +/- 1.48%); format: functional; details: HT-22, read-out: Activity
# [4] = test system: HT-22; experiment: Inhibition of glutamate-induced increase in JNK phosphorylation in mouse HT22 cells at 5 uM pretreated for 12 hrs followed by glutamate-challenge measured after 12 hrs by Western blotting assay (reference value: 1.84 +/- 0.11); format: cell-based
# [5] = test system: HT-22; experiment: Neuroprotective activity in mouse HT22 cells assessed as decrease of glutamate-induced ROS production at 5 uM pretreated for 12 hrs prior to glutamate-challenge measured after 12 hrs by CM-H2CDFDA staining-based flow cytometry (reference value: 3.95 +/- 0.01); format: functional
# [6] = test system: HT-22; experiment: Neuroprotective activity in mouse HT22 cells assessed as decrease in glutamate-induced reduction of full-length Bid level at 5 uM pretreated for 12 hrs prior to glutamate-challenge measured after 12 hrs by Western blotting assay; format: functional, cell-based
# [7] = test system: HT-22; experiment: Inhibition of glutamate-induced increase in ERK phosphorylation in mouse HT22 cells at 5 uM pretreated for 12 hrs followed by glutamate-challenge measured after 12 hrs by Western blotting assay (reference value: 3.01 +/- 0.3); format: cell-based
# [8] = test system: HT-22; experiment: Neuroprotective activity in mouse HT22 cells assessed as decrease in glutamate-induced reduction of full-length Bid level at 5 uM pretreated for 12 hrs prior to glutamate-challenge measured after 12 hrs by Western blotting assay (reference value: 0.9 +/- 0.05); format: functional
# [9] = test system: HT-22; experiment: Neuroprotective activity against glutamate-induced oxidative stress in mouse HT22 cells assessed as ROS level at 10 uM pretreated for 12 hrs prior to glutamate-challenge measured after 12 hrs (reference value: 241.63 +/- 7.98%); format: functional
# [10] = test system: HT-22; experiment: Neuroprotective activity in mouse HT22 cells assessed as decrease of glutamate-induced ROS production at 10 uM pretreated for 12 hrs prior to glutamate-challenge measured after 12 hrs by CM-H2CDFDA staining-based flow cytometry (reference value: 3.95 +/- 0.01); format: functional
SMILES,Activity [1] [%],fold change (FC) [2],viability at 10 µM [3] [%],fold change (FC) [4],fold change (FC) [5],Activity [6],fold change (FC) [7],fold change (FC) [8],Activity [9] [%],fold change (FC) [10]
O=C(/C=C/c1ccc(O)cc1)c1cc(O)c(O)cc1O,137.94,1.21,83.5,1.08,2.39,Active,1.64,,,
O=C(/C=C/c1ccc(O)c(O)c1)c1ccc(O)cc1O [BUTEIN],59.79,0.75,92.5,0.73,0.69,,1.49,1.22,,
O=C(/C=C/c1ccc(O)cc1)c1ccc(O)cc1O [ISOLIQUIRITIGENIN],96.19,1.03,78.9,1,1.44,,0.8,0.94,,
O=c1c(O)c(-c2ccc(O)c(O)c2)oc2cc(O)cc(O)c12 [QUERCETIN],,,93.7,,,,0.77,1.16,53.84,0.79
O=C1/C(=C/c2ccc(O)c(O)c2)Oc2cc(O)ccc21 [SULFURETIN],102.25,1.09,93.7,0.72,1.82,Active,2.02,,,
